Source: patent publication US20250186391A1, “ORAL COMPLEMENT FACTOR D INHIBITORS” (BioCryst Pharmaceuticals, Inc., priority 2019, published 2025)

Target: Factor D (Homo sapiens (Human), UniProt P00746)
Assay: Factor D esterolytic assay
Format: biochemical
Conditions: Z-Lys-SBzl substrate, 100 mM HEPES, 500 mM NaCl, pH 7.5, 10% DMSO; tested a minimum of three times; read-out: Measured Ki (IC50) Value for Compounds: IC50
Method in brief: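 Chromogenic thioesterase read-out: Z-Lys-SBzl (1.29 mM) hydrolysis by human Factor D, thiol detected with DTNB at 405 nm (690 nm background subtracted) for 600 s. Run in 100 mM HEPES, 500 mM NaCl, pH 7.5, 10% DMSO, substrate added immediately or after room-temperature preincubation. IC50 from percent inhibition versus enzyme alone, n≥3.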

Chain of Factor D (P00746 26-253): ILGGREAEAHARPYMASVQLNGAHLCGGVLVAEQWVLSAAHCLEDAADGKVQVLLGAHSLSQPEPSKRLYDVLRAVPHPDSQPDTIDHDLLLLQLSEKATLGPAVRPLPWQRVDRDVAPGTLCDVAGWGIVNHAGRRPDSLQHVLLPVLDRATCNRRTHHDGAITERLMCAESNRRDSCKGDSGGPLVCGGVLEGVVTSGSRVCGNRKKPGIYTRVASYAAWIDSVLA

| SMILES | IC50 [nM] |
| --- | --- |
| COc1ccc(CC(=O)O)c(OCc2c(F)oc3ccc(-c4cccc(CN)c4)cc23)c1 [Compound 172f, 2-(2-((5-(3-(aminomethyl)phenyl)-2-fluorobenzofuran-3-yl)methoxy)-4-methoxyphenyl)acetic acid] | < 1000 |
| CC(C)(C)c1oc2ccc(-c3cccc(CN)c3)cc2c1COc1cc(F)ccc1CC(=O)O [Compound 173c, 2-(2-((5-(3-(aminomethyl)phenyl)-2-(tert-butyl)benzofuran-3-yl)methoxy)-4-fluorophenyl)acetic acid] | < 1000 |
| COc1ccc(CC(=O)O)c(OCc2c(C(C)(C)C)oc3ccc(-c4cccc(CN)c4)cc23)c1 [Compound 174c, 2-(2-((5-(3-(aminomethyl)phenyl)-2-(tert-butyl)benzofuran-3-yl)methoxy)-4-methoxyphenyl)acetic acid] | < 1000 |
| COCCc1oc2ccc(-c3cccc(CN)c3)cc2c1COc1ccccc1CC(=O)O [Compound 175h, 2-(2-((5-(3-(aminomethyl)phenyl)-2-(2-methoxyethyl)benzofuran-3-yl)methoxy)phenyl)acetic acid] | < 1000 |
| Cc1ccc(CC(=O)O)c(OCc2c(C(C)(C)C)oc3ccc(-c4cccc(CN)c4)cc23)c1 [Compound 176c, 2-(2-((5-(3-(aminomethyl)phenyl)-2-(tert-butyl)benzofuran-3-yl)methoxy)-4-methylphenyl)acetic acid] | < 1000 |
| CC(C)(C)OC(=O)N(Cc1cc(-c2cccc(CN)c2)cc2c(COc3ccccc3CC(=O)O)coc12)CC(F)(F)F [Compound 177g, 2-(2-((5-(3-(aminomethyl)phenyl)-7-(((tert-butoxycarbonyl)(2,2,2-trifluoroethyl)amino)methyl)benzofuran-3-yl)methoxy)phenyl)acetic acid] | < 1000 |
| CC(C)n1nc(COc2ccccc2CC(=O)O)c2cc(-c3cccc(CN)c3)ccc21 [Compound 182e, 2-(2-((5-(3-(aminomethyl)phenyl)-1-isopropyl-1H-indazol-3-yl)methoxy)phenyl)acetic acid] | < 1000 |
| CC(C)n1nc2ccc(-c3cccc(CN)c3)cc2c1COc1ccccc1CC(=O)O [Compound 183e, 2-(2-((5-(3-(aminomethyl)phenyl)-2-isopropyl-2H-indazol-3-yl)methoxy)phenyl)acetic acid] | < 1000 |
| COc1ccc(CC(=O)O)c(OCc2nn(C)c3ccc(-c4cccc(CN)c4)cc23)c1 [Compound 185c, 2-(2-((5-(3-(aminomethyl)phenyl)-1-methyl-1H-indazol-3-yl)methoxy)-4-methoxyphenyl)acetic acid] | < 1000 |
| CC(C(=O)O)c1ccccc1OCc1coc2c(NCC3CCCC3)cc(-c3cccc(CN)c3)cc12 (stereo not shown) [Compound 186c, 2-(2-((5-(3-(aminomethyl)phenyl)-7-((cyclopentylmethyl)amino)benzofuran-3-yl)methoxy)phenyl)propanoic acid] | < 1000 |
| Cc1oc2ccc(-c3cccc(CN)c3)cc2c1COc1cc(F)ccc1CC(=O)O [Compound 200c, 2-(2-((5-(3-(aminomethyl)phenyl)-2-methylbenzofuran-3-yl)methoxy)-4-fluorophenyl)acetic acid] | < 1000 |
| COc1ccc(CC(=O)O)c(OCc2c(C)oc3ccc(-c4cccc(CN)c4F)cc23)c1 [Compound 201b, 2-(2-((5-(3-(aminomethyl)-2-fluorophenyl)-2-methylbenzofuran-3-yl)methoxy)-4-methoxyphenyl)acetic acid] | < 1000 |
| CCc1ccc(CC(=O)O)c(OCc2c(C)oc3ccc(-c4cccc(CN)c4)cc23)c1 [Compound 202c, 2-(2-((5-(3-(aminomethyl)phenyl)-2-methylbenzofuran-3-yl)methoxy)-4-ethylphenyl)acetic acid] | < 1000 |
| COc1ccc(CC(=O)O)c(OCc2c(C)oc3ccc(-c4ccnc(CN)c4)cc23)c1 [Compound 203d, 2-(2-((5-(2-(aminomethyl)pyridin-4-yl)-2-methylbenzofuran-3-yl)methoxy)-4-methoxyphenyl)acetic acid] | < 1000 |

More lines, now with the values ahead:

| IC50 [nM] | SMILES |
| --- | --- |
| < 1000 | NCc1cccc(-c2cc(CCC3CC3)c3occ(COc4ccccc4CC(=O)O)c3c2)c1 [Compound 170b, 2-(2-((5-(3-(aminomethyl)phenyl)-7-(2-cyclopropylethyl)benzofuran-3-yl)methoxy)phenyl)acetic acid] |
| < 1000 | CC(C)(C)c1oc2ccc(-c3cccc(CN)c3)cc2c1COc1ccccc1CC(=O)O [Compound 171i, 2-(2-((5-(3-(aminomethyl)phenyl)-2-(tert-butyl)benzofuran-3-yl)methoxy)phenyl)acetic acid] |
| < 1000 | NCc1cccc(-c2cc(CN3CCC[C@H]3C(F)(F)F)c3occ(COc4ccccc4CC(=O)O)c3c2)c1 [Compound 178f, (S)-2-(2-((5-(3-(aminomethyl)phenyl)-7-((2-(trifluoromethyl)pyrrolidin-1-yl)methyl)benzofuran-3-yl)methoxy)phenyl)acetic acid] |
| < 1000 | NCc1cccc(-c2cc(CNCC(F)(F)F)c3occ(COc4ccccc4CC(=O)O)c3c2)c1 [Compound 179b, 2-(2-((5-(3-(aminomethyl)phenyl)-7-(((2,2,2-trifluoroethyl)amino)methyl)benzofuran-3-yl)methoxy)phenyl)acetic acid] |
| < 1000 | NCc1cccc(-c2cc(CN3CC[C@H](F)C3)c3occ(COc4ccccc4CC(=O)O)c3c2)c1 [Compound 180d, (S)-2-(2-((5-(3-(aminomethyl)phenyl)-7-((3-fluoropyrrolidin-1-yl)methyl)benzofuran-3-yl)methoxy)phenyl)acetic acid] |
| < 1000 | NCc1cccc(-c2cc(CN3CCC(F)(F)C3)c3occ(COc4ccccc4CC(=O)O)c3c2)c1 [Compound 181f, 2-(2-((5-(3-(aminomethyl)phenyl)-7-((3,3-difluoropyrrolidin-1-yl)methyl)benzofuran-3-yl)methoxy)phenyl)acetic acid] |
| < 1000 | Cn1nc2ccc(-c3cccc(CN)c3)cc2c1COc1ccccc1CC(=O)O [Compound 184e, 2-(2-((5-(3-(aminomethyl)phenyl)-2-methyl-2H-indazol-3-yl)methoxy)phenyl)acetic acid] |
| < 1000 | NCc1cccc(-c2cc(NCc3cccnc3)c3occ(COc4ccccc4CC(=O)O)c3c2)c1 [Compound 187d, 2-(2-((5-(3-(aminomethyl)phenyl)-7-((pyridin-3-ylmethyl)amino)benzofuran-3-yl)methoxy)phenyl)acetic acid] |
| < 1000 | NCc1cccc(-c2cc(NC3CCCC3)c3occ(COc4ccccc4CC(=O)O)c3c2)c1 [Compound 188d, 2-(2-((5-(3-(aminomethyl)phenyl)-7-(cyclopentylamino)benzofuran-3-yl)methoxy)phenyl)acetic acid] |
| < 1000 | NCc1cccc(-c2cc(-c3cccc(CN)c3)c3occ(COc4ccccc4CC(=O)O)c3c2)c1 [Compound 189c, 2-(2-((5,7-bis(3-(aminomethyl)phenyl)benzofuran-3-yl)methoxy)phenyl)acetic acid] |
| < 1000 | CC(C)c1ccc(CC(=O)O)c(OCc2coc3ccc(-c4cccc(CN)c4)cc23)c1 [Compound 190f, 2-(2-((5-(3-(aminomethyl)phenyl)benzofuran-3-yl)methoxy)-4-isopropylphenyl)acetic acid] |
| < 1000 | NCc1cccc(-c2ccc3occ(COc4cc(Br)ccc4CC(=O)O)c3c2)c1 [Compound 192b, 2-(2-((5-(3-(aminomethyl)phenyl)benzofuran-3-yl)methoxy)-4-bromophenyl)acetic acid] |
| 1000 to 10000 | NCc1cccc(-c2cc(Cl)cc3c(COc4ccccc4CC(=O)O)coc23)c1 [Compound 193b, 2-(2-((7-(3-(aminomethyl)phenyl)-5-chlorobenzofuran-3-yl)methoxy)phenyl)acetic acid] |
| < 1000 | NCc1cccc(-c2cc(Oc3ccccc3)c3occ(COc4ccccc4CC(=O)O)c3c2)c1 [Compound 194f, 2-(2-((5-(3-(aminomethyl)phenyl)-7-phenoxybenzofuran-3-yl)methoxy)phenyl)acetic acid] |
| < 1000 | NCc1cccc(-c2cc(OCc3ccccn3)c3occ(COc4ccccc4CC(=O)O)c3c2)c1 [Compound 195f, 2-(2-((5-(3-(aminomethyl)phenyl)-7-(pyridin-2-ylmethoxy)benzofuran-3-yl)methoxy)phenyl)acetic acid] |
| < 1000 | NCc1cccc(-c2cc(OCc3nccs3)c3occ(COc4ccccc4CC(=O)O)c3c2)c1 [Compound 196f, 2-(2-((5-(3-(aminomethyl)phenyl)-7-(thiazol-2-ylmethoxy)benzofuran-3-yl)methoxy)phenyl)acetic acid] |
| < 1000 | Cc1cccc(-c2cc(-c3cccc(CN)c3)cc3c(COc4ccccc4CC(=O)O)coc23)c1 [Compound 197c, 2-(2-((5-(3-(aminomethyl)phenyl)-7-(m-tolyl)benzofuran-3-yl)methoxy)phenyl)acetic acid] |
| < 1000 | Cn1ccc(COc2cc(-c3cccc(CN)c3)cc3c(COc4ccccc4CC(=O)O)coc23)n1 [Compound 198f, 2-(2-((5-(3-(aminomethyl)phenyl)-7-((1-methyl-1H-pyrazol-3-yl)methoxy)benzofuran-3-yl)methoxy)phenyl)acetic acid] |
| < 1000 | Cn1cncc1COc1cc(-c2cccc(CN)c2)cc2c(COc3ccccc3CC(=O)O)coc12 [Compound 199f, 2-(2-((5-(3-(aminomethyl)phenyl)-7-((1-methyl-1H-imidazol-5-yl)methoxy)benzofuran-3-yl)methoxy)phenyl)acetic acid] |
| < 1000 | NCc1cccc(-c2ccc3oc(F)c(COc4ccccc4CC(=O)O)c3c2)c1 [Compound 204c, 2-(2-((5-(3-(aminomethyl)phenyl)-2-fluorobenzofuran-3-yl)methoxy)phenyl)acetic acid] |
